Columns and labels:
BRD9 [1] = target: T1, BRD9 (Homo sapiens, UniProt Q9H8M2); test: BRD9 degradation in SYO-1 cells, western blot dose response; type: cell-based; set-up: degradation endogenous BRD9 protein in two synovial sarcoma cell lines; endogenous in cells; host or cells: SYO1 (SYO-1) synovial sarcoma cells; conditions: for DC50: read-out: Fitted DC50
T1 sequence (Q9H8M2 1-597): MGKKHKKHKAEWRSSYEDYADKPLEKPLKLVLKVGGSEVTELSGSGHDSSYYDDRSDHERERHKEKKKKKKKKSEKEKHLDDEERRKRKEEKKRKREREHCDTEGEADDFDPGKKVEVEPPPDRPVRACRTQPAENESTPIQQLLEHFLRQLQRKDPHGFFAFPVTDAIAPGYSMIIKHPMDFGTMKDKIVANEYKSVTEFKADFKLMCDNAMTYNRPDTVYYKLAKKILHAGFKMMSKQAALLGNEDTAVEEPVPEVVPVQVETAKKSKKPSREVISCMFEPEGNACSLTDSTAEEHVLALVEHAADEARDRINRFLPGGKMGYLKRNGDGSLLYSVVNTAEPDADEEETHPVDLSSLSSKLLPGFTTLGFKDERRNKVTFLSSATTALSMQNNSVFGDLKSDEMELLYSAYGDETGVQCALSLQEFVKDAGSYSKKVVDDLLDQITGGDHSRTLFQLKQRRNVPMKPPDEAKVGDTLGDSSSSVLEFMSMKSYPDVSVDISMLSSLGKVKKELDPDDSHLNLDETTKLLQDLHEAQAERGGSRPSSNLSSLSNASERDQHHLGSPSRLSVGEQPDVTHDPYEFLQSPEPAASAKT
Procedure: (§1) Method. Synoial sarcoma cells were plated in 6-well plate at 500-100 k cells/well and treated with serial concentrations of BRD9 degrader (10 nM top concentration, diluted 1:3) the next day for two time points at 37° C. Cells were then harvested, washed with cold PBS, and frozen in cell pellets at −80° C. Lysates were prepared by resuspending thawed pellets in 1×RIPA Lysis and Extraction buffer (Thermo Fisher, Cat #89900) with 1× Halt™ Protease and Phosphatase Inhibitor Cocktail, EDTA-free (Thermo Fisher, Cat #78441) and 1:1000 dilution Pierce™ Universal Nuclease for Cell Lysis 25ku (Thermo Fisher, Cat #88700). Lysates were incubated on ice for 10 minutes and then centrifuged in 4° C. at maximum speed (15,000 rpm) for 10 minutes. Samples were then analyzed for total protein using BCA protein quantification assay and diluted to 1 μg/μL with lysis buffer and 1× NuPAGE™ LDS Sample Buffer (4×) (Thermo Fisher, Cat #NP0007) and 1×DTT from 30× stock (Cell Signaling Technologies, Cat #14265S). Samples with 20-25 ug of total protein were loaded into 4-12% Bis-Tris Mini-Gel with 1×MES Running buffer and run at 150V for 45 minutes. Gels were transferred using Trans-Blot® Turbo™ Transfer System (semi-dry) at 25V for 10 minutes (High MW setting) on nitrocellulose blots. Blots were blocked in 5% milk in TBST for 1 hour and probed with BRD9 antibody (Bethyl Labs, Cat #A303-781A, 1:750 for SYO1, and Cell Signaling Technologies, Cat #71232S for ASKA) and beta-Actin antibody (Cell Signaling Technologies, Cat #3700, 1:2000) overnight at 4° C. The next day, blots were washed in TBST 3× and probed with 1:5000 IRDye® 680LT Goat anti-Rabbit IgG Secondary Antibody (LiCOR, Cat #926-68021) and 1:10000 IRDye® 800CW Goat anti-Mouse IgG Secondary Antibody (LiCOR, Cat #926-32210) in LiCOR Odyssey® Blocking Buffer (TBS) for 1 hour at room temperature. Blots were washed in TBST 3× and scanned at […] wavelength using LiCOR Odyssey® CLx Imaging System. Western blot signal was quantified using same analyses program included in the same machine. BRD9 signal was quantified by normalizing to beta-actin signal and all samples were normalized to DMSO, set as 100% signal.

BRD9 [2] = target: T1, BRD9; test: BRD9 degradation in ASKA cells, western blot dose response; type: cell-based; set-up: degradation endogenous BRD9 protein in two synovial sarcoma cell lines; endogenous in cells; host or cells: ASKA synovial sarcoma cells; conditions: for DC50: read-out: Fitted DC50
Procedure: as §1, with “Synoial sarcoma cells were plated in 6-well plate at 500-100 k cells/well and treated with serial concentrations of BRD9 degrader (10 nM top concentration, diluted 1:3) the next day for two time points at 37° C.” left out

BRD9 [3] = target: T1, BRD9; test: Pharmacodynamic BRD9 level in SYO-1 xenograft tumors, western blot (Example 14); type: in vivo; set-up: degradation endogenous BRD9 protein in two synovial sarcoma cell lines; endogenous in cells; host or cells: SYO1 (SYO-1) synovial sarcoma cells; conditions: for pharmacodynamic activity assessed by BRD9 protein level: BALB/c Nude mice, i.v. single dose, FIG. 23; for BRD9 protein degradation in tumor: single dose, tumors up to 72 hours
[4] = Interconversion between Enantiomer 1 and Enantiomer 2 in cell medium, chiral LC/MS-MS; type: physicochemical; conditions: 0.2 μM, 37° C.
Procedure: For the assessment of interconversion between Enantiomer 1 and Enantiomer 2 in cell medium, the following test was performed. […] At designated time point, aliquot (50 μL) was taken and processed by the addition of 150 μL of acetonitrile containing 0.1% formic acid and internal standard for LC/MS-MS analysis. Peak areas of both Enantiomer 1 and Enantiomer 2 were determined for each sample using a chiral specific analytical method.

[5] = test system: non-synovial control cancer cell lines (293T, A549, G401); test: Growth of non-synovial control cancer cell lines (Example 2); type: cell-based; conditions: FIGS. 4, 5, 6
Procedure: (§2) Cells were treated with DMSO or the BRD9 degrader, Compound 1, at indicated concentrations, and proliferation was monitored from day 7 to day 14 by measuring confluency over time using an IncuCyte live cell analysis system (FIG. 4). Growth medium and compounds were refreshed every 3-4 days.
(§3) Cells were seeded into 12-well plates and treated with DMSO, 1 μM BRD9 inhibitor, Compound 2 (also known as BI-7273, see Martin et al, J Med Chem. 59(10):4462-4475 (2016); see structure of compound 2 below), or 1 μM BRD9 degrader, Compound 1.
(§4) The number of cells was optimized for each cell line. Growth medium and compounds were refreshed every 3-5 days. SYO1, Yamato, A549, 293T and HS-SY-II cells were fixed and stained at day 11. ASKA cells were fixed and stained at day 23. Staining was done by incubation with crystal violet solution (0.5 g Crystal Violet, 27 ml 37% Formaldehyde, 100 mL 10×PBS, 10 mL Methanol, 863 dH20 to 1 L) for 30 min followed by 3× washes with water and drying the plates for at least 24 h at room temperature. Subsequently plates were scanned on an Odyssey CLx Imaging system (FIG. 5).
(§5) Cells were seeded into 96-well ultra-low cluster plate (Costar, #7007) in 200 μL complete media and treated at day 2 with DMSO, Staurosporin, or BRD9 degrader, Compound 1, at indicated doses (FIG. 2C). Media and compounds were changed every 5 d and cell colonies were imaged at day 14.

[6] = test system: non-synovial control cancer cell lines (RD, HCT116, and Calu6); test: Growth of non-synovial control cancer cell lines, crystal violet, day 14 (Example 3); type: cell-based; conditions: FIG. 8
Procedure: (§6) Procedure: Cells were seeded into 6-well or 12-well plates and were treated daily with a BRD9 degrader (Compound 1), a bromo-domain BRD9 binder (Compound 2), E3 ligase binder (lenalidomide), DMSO, or staurosporin (positive control for cell killing), at indicated concentrations. The number of cells was optimized for each cell line. Growth media was refreshed every 5 days. By day 14, medium was removed, cells were washed with PBS, and stained using 500 μL of 0.005% (w/v) crystal violet solution in 25% (v/v) methanol for at least 1 hour at room temperature. Subsequently plates were scanned on an Odyssey CLx Imaging system.

[7] = test system: synovial sarcoma cell lines (SYO1, HS-SY-II, and ASKA); test: Growth of synovial sarcoma cell lines, crystal violet, day 14 (Example 3); type: cell-based; conditions: SYO1, HS-SY-II, ASKA; day 14; FIG. 7
Procedure: as §6

[8] = test system: synovial sarcoma cell lines (SYO1, Yamato, HS-SY-II, and ASKA); test: Growth of synovial sarcoma cell lines (Example 2: confluency, crystal violet, colonies); type: cell-based; conditions: FIGS. 4, 5, 6
Procedure: as §2, §3, §4, §5

COc1cc(-c2cn(C)c(=O)c3cnc(N4CCC4)cc23)cc(OC)c1CN1CCC(CN2CCC3(CC2)CN(c2ccc4c(c2)C(=O)N(C2CCC(=O)NC2=O)C4)C3)CC1 (single isomer, unassigned; enantiomer 1) [Enantiomer 1]
DC50 (BRD9 [1]; SYO-1, 1 h): 2.8 nM
DC50 (BRD9 [1]; SYO-1, 6 h): 0.066 nM
DC50 (BRD9 [2]; 0.5 h): > 10 nM
BRD9 degradation activity (BRD9 [2]; 30 minutes, up to 10 μM): no discernable activity
DC50 (BRD9 [2]; 2 h): 0.38 nM
pharmacodynamic activity assessed by BRD9 protein level (BRD9 [3]): inactive
BRD9 protein degradation in tumor (BRD9 [3]): did not degrade BRD9 protein
Mean peak area ratio of Enantiomer 2 over Enantiomer 1 peak area ratio ([4]; Enantiomer 1 Dosing, 0 h): 0.0
Mean peak area ratio of Enantiomer 2 over Enantiomer 1 peak area ratio ([4]; Enantiomer 1 Dosing, 0.5 h): 0.0
% Enantiomer 2 ([4]; Enantiomer 1 Dosing, 2 h): 12%
Mean peak area ratio of Enantiomer 2 over Enantiomer 1 peak area ratio ([4]; Enantiomer 1 Dosing, 2 h): 0.13
% Enantiomer 2 ([4]; Enantiomer 1 Dosing, 6 h): 30%
Mean peak area ratio of Enantiomer 2 over Enantiomer 1 peak area ratio ([4]; Enantiomer 1 Dosing, 6 h): 0.43

COc1cc(-c2cn(C)c(=O)c3cnccc23)cc(OC)c1CN(C)C [Compound 2, BI-7273]
growth of the cells [5]: does not result in inhibition of the growth
growth of the cells [6]: did not result in inhibition of the growth
growth of the cells [7]: inhibition of the growth of the cells
growth of the cells [8]: inhibition of the growth of the cells

COc1cc(-c2cn(C)c(=O)c3cnc(N4CCC4)cc23)cc(OC)c1CN1CCC(CN2CCC3(CC2)CN(c2ccc4c(c2)C(=O)N(C2CCC(=O)NC2=O)C4)C3)CC1 (single isomer, unassigned; enantiomer 2) [Enantiomer 2]
difference in DC50 between Enantiomer 1 and Enantiomer 2 (BRD9 [1]; SYO1, 6 h): ca. 3 fold
BRD9 degradation compared with racemic compound D1 (BRD9 [1]; SYO-1, 1 or 6 hours, FIGS. 16 and 17): slightly better than its racemic parent compound D1
DC50 (BRD9 [1]; SYO-1, 1 h): 0.092 nM
DC50 (BRD9 [1]; SYO-1, 6 h): 0.023 nM
DC50 (BRD9 [2]; 0.5 h): 0.34 nM
difference in DC50 between Enantiomer 1 and Enantiomer 2 (BRD9 [2]; 2 h): about 32 fold
DC50 (BRD9 [2]; 2 h): 0.012 nM
potency compared with racemic compound D1 (BRD9 [3]): equipotent to racemic compound D1
pharmacodynamic activity assessed by BRD9 protein level (BRD9 [3]): significant activity
BRD9 protein degradation in tumor (BRD9 [3]): degraded BRD9 up to 72 hours after a single dose
% Enantiomer 2 ([4]; Enantiomer 2 Dosing, 0 h): 99%
Mean peak area ratio of Enantiomer 1 over Enantiomer 2 peak area ratio ([4]; Enantiomer 2 Dosing, 0 h): 0.01
% Enantiomer 2 ([4]; Enantiomer 2 Dosing, 0.5 h): 95%
Mean peak area ratio of Enantiomer 1 over Enantiomer 2 peak area ratio ([4]; Enantiomer 2 Dosing, 0.5 h): 0.06
% Enantiomer 2 ([4]; Enantiomer 2 Dosing, 2 h): 82%
Mean peak area ratio of Enantiomer 1 over Enantiomer 2 peak area ratio ([4]; Enantiomer 2 Dosing, 2 h): 0.22
% Enantiomer 2 ([4]; Enantiomer 2 Dosing, 6 h): 63%
Mean peak area ratio of Enantiomer 1 over Enantiomer 2 peak area ratio ([4]; Enantiomer 2 Dosing, 6 h): 0.60

Reference: patent US11851445B2, “Compounds and uses thereof” (Foghorn Therapeutics Inc., priority 2020, dated 2023)
